Data published in PubChem BioAssay (NCI).
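Following 48 hours of exposure in 96-well plates, responses at five concentrations were used to interpolate endpoints linearly. TGI is the concentration that stops growth completely.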

Tests used:
Assay in all cases: NCI tumour cell line growth inhibition, 48 h
A549 NSCLC = system: A549 NSCLC
HCC-2998 colon = system: HCC-2998 colon
HL-60(TB) leukemia = system: HL-60(TB) leukemia
HOP-62 NSCLC = system: HOP-62 NSCLC
HOP-92 NSCLC = system: HOP-92 NSCLC
HT29 colon = system: HT29 colon
MALME-3M melanoma = system: MALME-3M melanoma
NCI-H460 lung = system: NCI-H460 lung
RXF 393 renal = system: RXF 393 renal
SF-268 CNS = system: SF-268 CNS
SK-MEL-5 melanoma = system: SK-MEL-5 melanoma
SNB-19 CNS = system: SNB-19 CNS
SW-620 colon = system: SW-620 colon
TK-10 renal = system: TK-10 renal
A498 renal = system: A498 renal
CCRF-CEM leukemia = system: CCRF-CEM leukemia
MDA-MB-435 = system: MDA-MB-435
PC-3 prostate = system: PC-3 prostate
MDA-N = system: MDA-N
BT-549 breast = system: BT-549 breast

| Compound | TGI (A549 NSCLC) [µM] | TGI (HCC-2998 colon) [µM] | TGI (HL-60(TB) leukemia) [µM] | TGI (HOP-62 NSCLC) [µM] | TGI (HOP-92 NSCLC) [µM] | TGI (HT29 colon) [µM] | TGI (MALME-3M melanoma) [µM] | TGI (NCI-H460 lung) [µM] | TGI (RXF 393 renal) [µM] | TGI (SF-268 CNS) [µM] | TGI (SK-MEL-5 melanoma) [µM] | TGI (SNB-19 CNS) [µM] | TGI (SW-620 colon) [µM] | TGI (TK-10 renal) [µM] | TGI (A498 renal) [µM] | TGI (CCRF-CEM leukemia) [µM] | TGI (MDA-MB-435) [µM] | TGI (PC-3 prostate) [µM] | TGI (MDA-N) [µM] | TGI (BT-549 breast) [µM] |
| --- | --- | --- | --- | --- | --- | --- | --- | --- | --- | --- | --- | --- | --- | --- | --- | --- | --- | --- | --- | --- |
| O=[N+]([O-])c1c(C=Nc2ccccc2)oc(-c2ccc3c(c2)OCO3)c1-c1ccc2c(c1)OCO2 | > 100 | > 100 | > 100 | > 100 | > 100 | > 100 | > 100 | > 100 | > 100 | > 100 | > 100 | > 100 | > 100 | > 100 | – | – | – | – | – | – |
| O=C1C(=Cc2cccc(O)c2)N=C(c2ccccc2)N1n1c(-c2ccccc2)nc2ccccc2c1=O | > 100 | – | 54 | – | 66 | 85 | 92.3 | 59.8 | 83.8 | 87.5 | 48 | 72.7 | > 100 | > 100 | 72.4 | 75.5 | > 100 | 58.7 | – | – |
| CN(C)/C=N/NC(=O)/C(C#N)=C/N(C)C | > 100 | > 100 | > 100 | > 100 | – | > 100 | > 100 | > 100 | > 100 | > 100 | > 100 | > 100 | > 100 | > 100 | > 100 | > 100 | > 100 | > 100 | > 100 | – |
| Brc1cc2c(cc1C1SCCS1)OCO2 | > 100 | > 100 | > 100 | > 100 | – | > 100 | > 100 | > 100 | – | > 100 | > 100 | > 100 | > 100 | > 100 | > 100 | > 100 | – | – | – | – |
| COc1ccc(C=C(c2ccc(OCc3ccccc3)cc2)c2ccc(OCc3ccccc3)cc2)cc1 | > 100 | > 100 | > 100 | > 100 | – | > 100 | > 100 | > 100 | > 100 | > 100 | > 100 | > 100 | > 100 | > 100 | – | – | – | – | – | – |
| NC(N)=NS(=O)(=O)c1ccc(Nc2c3ccccc3nc3c(C(=O)Nc4ccc(S(N)(=O)=O)cc4)ccc(Cl)c23)cc1 | > 100 | > 100 | > 100 | > 100 | > 100 | > 100 | > 100 | > 100 | > 100 | > 100 | > 100 | > 100 | > 100 | > 100 | > 100 | – | – | – | – | – |
| N#CCC(=O)N/N=C(\C(=O)Nc1ccc(Cl)c(Cl)c1)C1CN(c2ccccc2)N=C1N (stereo not drawn) | > 100 | > 100 | > 100 | > 100 | > 100 | > 100 | > 100 | > 100 | > 100 | > 100 | > 100 | – | – | > 100 | > 100 | > 100 | – | – | – | – |
| Cc1nn(-c2nc3ccccc3s2)c2c1C(=O)c1ccccc1-2 | > 100 | > 100 | > 100 | > 100 | > 100 | > 100 | > 100 | > 100 | > 100 | > 100 | > 100 | > 100 | > 100 | > 100 | > 100 | – | – | – | – | – |
| COc1ccc(-n2c(N)c(C#N)c(C#N)c2-c2ccccc2)cc1 | > 100 | > 100 | > 100 | > 100 | 76.5 | > 100 | > 100 | – | > 100 | > 100 | > 100 | > 100 | > 100 | > 100 | > 100 | > 100 | > 100 | > 100 | – | > 100 |
| COc1c(C)cc2c(c1O)C1NC(C2)[C@H](O)N2C3COC(=O)[C@@]4(CS[C@@H](c5c(OC(C)=O)c(C)c6c(c53)OCO6)C12)NCCC1=C4NC2C=CC=CC12 (stereo partly drawn) | < 0.01 | < 0.01 | < 0.01 | < 0.01 | – | 0.107 | < 0.01 | – | < 0.01 | 0.0304 | < 0.01 | – | < 0.01 | 1.31 | < 0.01 | < 0.01 | – | – | – | – |
| CCOC(=O)c1ccc(NC(=O)SCCC(=O)O)cc1 | > 100 | > 100 | > 100 | > 100 | – | > 100 | – | > 100 | > 100 | 54 | – | > 100 | > 100 | > 100 | > 100 | > 100 | – | – | – | – |
| CCOP(=O)(OCC)C(C(=O)OC)C(=O)C(=O)Nc1c(C)cc(Br)cc1C (stereo not drawn) | > 100 | > 100 | > 100 | > 100 | > 100 | > 100 | > 100 | > 100 | > 100 | > 100 | > 100 | > 100 | > 100 | > 100 | > 100 | > 100 | – | – | – | – |
| COC(=O)/C=C(/OC)[C@H](C)[C@H](/C=C/c1csc(-c2csc(C(C)C)n2)n1)OC | > 100 | – | 99.5 | > 100 | > 100 | > 100 | > 100 | > 100 | > 25 | > 100 | 19.9 | > 100 | > 100 | > 100 | > 100 | > 100 | > 100 | > 100 | – | > 100 |
| Cc1nc(C(N)=S)sc1C(=O)CC(=O)C(=O)Nc1nc2ccccc2[nH]1 | > 100 | > 100 | > 100 | > 100 | > 100 | > 100 | > 100 | > 100 | > 100 | > 100 | > 100 | – | > 100 | > 100 | > 100 | – | > 100 | > 100 | – | > 100 |
| COc1cc(/C=C\c2cccnc2)cc(OC)c1OC | > 100 | – | 48 | > 100 | > 100 | > 100 | > 100 | > 100 | 88.5 | > 100 | 40.8 | > 100 | > 100 | > 100 | – | > 100 | – | – | – | – |
| CCOC(=O)C1=CC(C)(C(=O)OCC)Nc2c(nc(OC)[nH]c2=O)N1 (stereo not drawn) | > 10 | > 10 | – | > 10 | > 10 | > 10 | > 10 | > 10 | > 10 | > 10 | > 10 | > 10 | > 10 | > 10 | > 10 | > 10 | – | > 10 | > 10 | – |
| COc1ccccc1/C=C1\CCC(CCN2CCOCC2)C1=O (stereo not drawn) | > 100 | > 100 | > 100 | > 100 | > 100 | > 100 | > 100 | > 100 | > 100 | > 100 | > 100 | > 100 | > 100 | > 100 | > 100 | > 100 | – | – | – | – |
| COc1cc(/C=C2\C(=O)N(C(=O)c3ccc(NC(C)=O)cc3)N=C2C)ccc1O | > 100 | > 100 | > 100 | > 100 | – | > 100 | > 100 | > 100 | – | > 100 | > 100 | > 100 | > 100 | > 100 | – | > 100 | – | – | – | – |
| O=c1[nH]cnc2c1CCCN2 | > 100 | > 100 | > 100 | > 100 | > 100 | > 100 | > 100 | – | > 100 | > 100 | > 100 | > 100 | > 100 | > 100 | – | > 100 | – | – | – | – |
| CN(Cc1ccccc1)C(=NC#N)N(C)Cc1ccccc1 | > 100 | > 100 | – | > 100 | > 100 | > 100 | – | > 100 | – | > 100 | > 100 | > 100 | > 100 | > 100 | – | – | – | – | – | – |
| CC(=O)c1cccc(NC(=O)C(=O)Nn2c(N)nnc2N)c1 | > 100 | > 100 | > 100 | > 100 | > 100 | > 100 | > 100 | > 100 | > 100 | > 100 | > 100 | > 100 | > 100 | > 100 | > 100 | > 100 | – | – | – | – |
| COc1ccc2[nH]cc(CCNC(=O)[C@](O)(Cc3cn(C)c4ccccc34)[C@@]3(O)OCC(O)C3O)c2c1 (stereo partly drawn) | > 100 | > 100 | > 100 | > 100 | > 100 | > 100 | > 100 | > 100 | > 100 | > 100 | > 100 | > 100 | > 100 | > 100 | – | > 100 | – | – | – | – |
| CC(C)N1CN(C(C(=O)N[C@@H]2C(=O)N3C2SC(C)(C)C3C(=O)O)c2ccc(O)cc2)CSC1=S (stereo partly drawn) | – | – | > 100 | > 100 | > 100 | > 100 | > 100 | > 100 | – | > 100 | > 100 | > 100 | 36.9 | > 100 | > 100 | > 100 | – | – | – | – |
| CN1Cc2cc3c(cc2-c2ccccc21)OCO3 | > 100 | > 100 | > 100 | – | > 100 | > 100 | – | > 100 | > 100 | > 100 | > 100 | > 100 | > 100 | > 100 | > 100 | > 100 | – | – | – | – |
| Clc1cc2n[se]nc2cc1Cl | > 100 | > 100 | > 100 | > 100 | – | > 100 | > 100 | > 100 | > 100 | > 100 | > 100 | > 100 | > 100 | > 100 | > 100 | > 100 | – | – | – | – |
| CCCCCCCC(=O)OCC1OC(OC)C(NC(=O)N(CCCl)N=O)C(O)C1O (stereo not drawn) | > 72.3 | 30.3 | 22.3 | 23.1 | 9.96 | 50.3 | 28.5 | > 39.2 | 34.3 | – | 35.8 | > 100 | 18.9 | 58 | 56.8 | 40.5 | – | – | – | – |
| N#Cc1nc(C(CO)N(Cc2ccccc2)C(=O)O)oc1N (stereo not drawn) | > 100 | > 100 | > 100 | > 100 | > 100 | > 100 | – | > 100 | > 100 | > 100 | > 100 | – | – | > 100 | > 100 | – | > 100 | > 100 | – | > 100 |
| CCOc1ccc(NC(=O)C2=C(C)NC(C)=C(C(=O)Nc3ccc(OCC)cc3)C2c2ccccc2)cc1 | > 100 | > 100 | 96.9 | > 100 | > 100 | > 100 | > 100 | > 100 | > 100 | > 100 | > 100 | > 100 | > 100 | > 100 | > 100 | > 100 | – | – | – | – |
| O=C1C2CN(Cc3ccccc3)CC1CN(CC1CC1)C2 | > 100 | – | > 100 | > 100 | > 100 | > 100 | > 100 | > 100 | > 100 | > 100 | > 100 | > 100 | > 100 | > 100 | > 100 | > 100 | – | – | – | – |
